Data reported in patent US12472196B2, “Use of DNMT inhibitor” (priority 2019, dated 2025).
Read-outs that look alike come from different tables or passages of the source. Blank lines part the entries; values can stand above or below the molecule they belong to.

What was measured:
cytidine deaminase = cytidine deaminase (Homo sapiens, UniProt P32320); experiment: Stability against cytidine deaminase (HPLC)
Method: About 1 mg of a silyl etherified derivative of 5-aza-2′-deoxycytidine in carbohydrate moiety (see formula (I)) was dissolved in 1 mL of acetonitrile. 10 μL of the solution was added to 1 mL of PBS. 10 μl of a PBS solution of cytidine deaminase was added to the obtained solution and stirred at 37° C. for about 1 hour. 1 mL of acetonitrile was added to the reaction solution and centrifuged. The supernatant was analyzed with HPLC.
Cytidine deaminase: CDA (1-146aa), Human, His-tagged, Recombinant cytidine deaminase (ATGen) • HPLC conditions: • Column: CAPCELL PAK ADME (4.6 mm×150 mm, particle size: 3 μm) • Elution: eluate A=Purified water containing 10 mM ammonium formate • Eluate B=Acetonitrile • Gradient mode: A:B=99:1→5:95/30 minutes • Flow rate: 1.0 mL/min • Oven temperature: 40° C. • Detection: UV240 nm

[1] = tested on: CpG island of LINE-1 in BV173 cell line; experiment: DNA demethylation effect: CpG methylation ratio of LINE-1 by pyrosequencing; format: cell-based; conditions: BV173, 72 hours
Method: The methylation ratio of cytosine moiety of CpG island of LINE-1 (long interspersed nucleotide factor −1) was determined by using a method of pyrosequencing.
Solutions of silyl etherified derivatives of 5-aza-2′-deoxycytidine in carbohydrate moiety (for example, Compound F: 5′-O-(triethylsilyl)-5-aza-2′-deoxycytidine) at concentrations of 0.1 nM, 1.0 nM, 5.0 nM, 10.0 nM, and 50.0 nM were added, respectively to a solution containing BV173 cell line (about 50,000 cells/mL), and cultured in a RPMI-1640 medium (containing 10% FBS and Penn-strep) for 72 hours. Then, DNA was extracted from the cells and treated with hydrogensulfite. CpG methylation ratio of LINE-1 was determined (see Table 4).

Ba/F3 BCR-ABL^WT = experiment: cells; conditions: Mus musculus, BaF3, 72 h, read-out: IC50 Ba/F3 BCR-ABL^WT
Method: (§1) The CML cell line (BV173, MYL, Ba/F3 BCR-ABL^WT) and the TKI-resistant CML cell line (MYL-R, Ba/F3 BCR-ABL^T315I) in the Table below were seeded in 96-well plates at 3,000-7,000 cells/100 μL/well in a culture solution (10% FBS and RPMI-1640) and cultured under 5% CO2 gas flow at 37° C. for about 3 hours. Then, 100 μL of each compound diluted with the culture solution to 50-0.05 μM MYL, Ba/F3 BCR-ABL^WT, MYL-R, Ba/F3 BCR-ABL^T315I and 500 nM-0.1 nM BV173 was added to the above 96-well plates and cultured for 24 hours, followed by centrifugation (4° C., 1500 rpm, 5 minutes). The supernatant of the culture solution was discarded. 100 μL each of the compounds diluted with the culture solution was added again and cultured further for 24 hours (48 hours totally). The same procedure was repeated. After further culturing for 24 hours (72 hours totally) and reaction using CCK-8 reagent (DOJINDO, CK04) according to its attached instruction, the absorption at 450 nm and 620 nm (blank) of each well was determined with a plate reader (Varioskan Flash, Thermo-Fisher Scientific Co. Ltd.). The values of the wells without sample treatment were taken as 100%, and those of the wells treated with the samples were expressed as relative values. The values of IC50 (μm) were calculated (see Table 3-1). In addition, IC50 ratio of MYL-R cell line to MYL cell line and that of Ba/F3 BCR-ABL^T315I cell line to Ba/F3 BCR-ABL^WT cell line were calculated (see Table 3-2).

BV173 = experiment: cells
Method: as §1

MYL = experiment: cells; conditions: 72 h, read-out: IC50 MYL
Method: as §1

Ba/F3 BCR-ABL^T315I = experiment: cells
Method: as §1
(§2) MYL-R cell line is an MYL cell line in which Lyn is overexpressed, and Ba/F3 BCR-ABL^T315I cell line is the one in which ABLT315I mutation is introduced into Ba/F3 BCR-ABL^WT cell line. They both have acquired resistance to TKI.

MYL-R = experiment: cells
Method: as §1, §2

[2] = Non-enzymatic hydrolysis in PBS solution at 37° C. (HPLC); format: physicochemical
Method: A silyl etherified derivative of 5-aza-2′-deoxycytidine in carbohydrate moiety (see formula (I)), for example, 5′-O-(triethylsilyl)-5-aza-2′-deoxycytidine (Compound F) (about 1 mg) was dissolved in 1 mL of acetonitrile. 5 μL of the solution was added to 100 μL of a PBS solution (10 mM), and stirred at 37° C. The reactant was analyzed over the time with HPLC.
HPLC conditions were same as those in test example 1.

Chain of cytidine deaminase (P32320 whole entry): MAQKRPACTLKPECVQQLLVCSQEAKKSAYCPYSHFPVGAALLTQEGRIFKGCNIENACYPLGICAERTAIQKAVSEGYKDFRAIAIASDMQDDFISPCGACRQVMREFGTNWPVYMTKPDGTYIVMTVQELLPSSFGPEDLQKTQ

stability to cytidine deaminase (in words) (cytidine deaminase): disappeared completely | time within which decomposed in the presence of cytidine deaminase (cytidine deaminase; under the condition used): ≤ 30 min
Structure (SMILES): Nc1ncn([C@H]2C[C@H](O)[C@@H](CO)O2)c(=O)n1 [5-Aza-2′-deoxycytidine]
Change in HPLC pattern (cytidine deaminase): The peak for starting material disappeared

Structure (SMILES): CC[Si](CC)(CC)OC[C@H]1O[C@@H](n2cnc(N)nc2=O)C[C@@H]1O [Compound F, 5′-O-(Triethylsilyl)-5-aza-2′-deoxycytidine]
Methylation ratio ([1]; 0.1 nM): 89.3% | Methylation ratio ([1]; 1.0 nM): 89.7% | Methylation ratio ([1]; 5.0 nM): 88.0% | Methylation ratio ([1]; 10.0 nM): 82.3% | Methylation ratio ([1]; 50.0 nM): 60.0% | IC50 (Ba/F3 BCR-ABL^WT): 580 nM | anti-CML activity (in words) (BV173; CML cell lines of Table 3-1 (BV173, MYL, Ba/F3 BCR-ABL^WT)): very high anti-CML activity | IC50 (BV173; Homo sapiens, BV-173, 72 h, read-out: IC50 BV173): 5 nM | IC50 (MYL): 280 nM | IC50 (Ba/F3 BCR-ABL^T315I; Mus musculus, BaF3, 72 h, read-out: IC50 Ba/F3 BCR-ABL^T315I): 780 nM | IC50 ratio Ba/F3 BCR-ABL^T315I/BCR-ABL^WT (Ba/F3 BCR-ABL^T315I; ratio of IC50 in Ba/F3 BCR-ABL^T315I to Ba/F3 BCR-ABL^WT): 1.4 | IC50 (MYL-R; 72 h, read-out: IC50 MYL-R): 790 nM | anti-CML activity against MYL-R strain compared with reference nucleosides (in words) (MYL-R; MYL-R): considerably higher than that in the case of 5-aza cytidine | anti-TKI-resistant CML activity (in words) (MYL-R; TKI-resistant CML cell lines of Table 3-1 (MYL-R, Ba/F3 BCR-ABL^T315I)): anti-TKI-resistant CML activity | IC50 ratio MYL-R/MYL (MYL-R; ratio of IC50 in MYL-R to MYL): 2.8 | 5-Aza-2′-deoxycytidine (%) After 4 hours ([2]; 10 mM PBS, 4 hours, desilyl form produced): 10% | 5-Aza-2′-deoxycytidine (%) After 8 hours ([2]; 10 mM PBS, 8 hours, desilyl form produced): 12% | 5-Aza-2′-deoxycytidine (%) After 24 hours ([2]; 10 mM PBS, 24 hours, desilyl form produced): 48% | non-enzymatic hydrolysis in PBS solution (in words) ([2]; PBS): the corresponding desilyl form (5-aza-2′-deoxycytizine: R^1 and R^2 are hydrogen atoms in formula (I)) was produced almost without other decomposition products | Change in HPLC pattern (cytidine deaminase; PBS with recombinant human cytidine deaminase, 37° C., about 1 hour): Almost no change in the peak for
